Data as given in patent US20090069441A1, “Motuporamine Mimic Agents” (priority 2006, published 2009).
Like-named read-outs stand apart in the source and are kept apart here.

What was measured:
[1] = system: Drosophila imaginal leg discs; assay: Imaginal disc eversion assay; type: cell-based, Drosophila melanogaster; conditions: 15 hr incubation in Robb's medium; for inhibition at 18 µM: Drosophila melanogaster
Procedure: DihydroMotuporamine C, 4a, was used to develop an imaginal disc assay in Drosophila flies. The imaginal leg discs were collected by microscopic dissection from maggots. […] Inhibition was measured as failure of the disc to fully develop into a fly leg after 15 hr of incubation in Robb's growth medium. This presumably occurs by overactivation of Rho, an important signaling pathway in development. Hyper-stimulation of this pathway is sufficient to block development of the fly leg.
Fly Stocks: 20 female and 5 male wild type Oregon variant of Drosophila melanogaster interbred in blue food medium for 24 hours then flies are removed. Third instar wall-crawling larvae collected then dissected on the sixth day. Flies kept in 25° C. incubation chamber.
Blue Food Preparation: Standard corn meal medium heated then mixed completely with aqueous 1% Bromophenol Blue. The food medium is cooled for one day or more before use.
Dissection Medium: Ringer's Buffer with 10 uL 0.1% BSA. Ringer's Medium consists of 130 mM NaCl, 5 mM KCl, 1.5 mM CaCl2-2H2O, Stored at room temperature (23° C.), BSA added before dissection.
Cultivation Medium: Minimal Robb's Medium with 10 uL 0.1% BSA. Minimal Robb's Medium consists of 40 mM KCl, 0.4 mM KH2PO4, 40 mM NaCl, 0.4 mM NaH2PO4.7H2O, 1.2 mM MgSO4.7H2O, 1.2 mM MgCl2-6H2O, 1 mM CaCl2-2H2O, 10 mM Glucose, 0.2 mM L-asparagine, 4.0 mM L-glutamine, 0.16 mM Glycine, 0.64 mM L-leucine, 0.32 mM L-proline, 0.16 mM R-Serine, 0.64 mM L-valine. Stored at −25° C. One day before dissection, aliquot defrosted in 4° C. Add BSA then warmed to room temperature (23° C.) before dissection.
0.1% BSA: 0.1 g BSA fraction V (Sigma#A-9647) in 10 mL distilled H2O, Stored at 4° C.
Developmental Hormone: 1 mg 20-hydroxyecdysone (Sigma #H-5142) in 1 mL 100% Ethanol. Stored at −25° C. Before use, stock is diluted 10× (1 mL added to 9 mL of 100% Ethanol). 10 μL of diluted 20-hydroxyecdysone is added to culture.
Dissection Procedures: Third instar larvae are removed from cultivation bottle with a wetted brush and washed in dH2O to remove food medium clinging to larvae. The cleaned larvae are dissected in Ringer's Medium using forceps. The imaginal discs are washed in fresh Ringer's Medium, and then cultivated with 1 mL of Robb's Medium in 12-well culture plate. Each culture well should have 30˜40 imaginal discs.
Culturing Procedures: In a larger container, place the 12-well culture plate on a moist towel, then seal the large container. Cultivate at 25° C. for 15 hours. Evaluation: Three categories will be used to grade the eversion of each imaginal disc. Full Eversion—the leg is fully extended from the disc. Partial Eversion—the leg is protruding from the epithelial. No Eversion—no sign of any protrusion.

CHO-MG cells = assay: Cytotoxicity in PAT-deficient CHO-MG cells; type: cell-based, Chinese hamster
Description: (§1) In terms of Table 1, L1210 cells are mouse leukemia cells and are the gold standard in terms of evaluating polyamine cytotoxicity data due to a plethora of prior data in this cell line for other polyamine structures. Clearly 7a was similar in all respects to 4a (Table 1). […] The lower the Ki value, the higher the affinity of the drug for the polyamine transporter (PAT) on the cell surface. Chinese hamster ovary (CHO) cells and a mutant line without an active PAT (CHO-MG) also evaluated the PAT selectivity of these drugs.
(§2) CHO and CHO-MG studies. Chinese hamster ovary (CHO) cells were chosen along with a mutant cell line (CHO-MG) in order to comment on how the synthetic conjugates gain access to cells. The CHO-MG cell line is polyamine-transport deficient and was isolated after selection for growth resistance to methylglyoxalbis(guanylhydrazone), MGBG, (CH3C[═N—NHC(═NH)NH2]CH[═N—NHC(═NH)NH2]) using a single-step selection after mutagenesis with ethylmethanesulfonate (Mandel et al., J. Cell. Physiol., 1978, 97, 335-344; Byers et al., Biochem. J. 1989, 263, 745-752).
For the purposes of this study, the CHO-MG cell line represents cells with no PAT activity and provided a model for alternative modes of entry or action, which are independent of PAT. These alternative modes of entry include passive diffusion or utilization of another transporter. The alternative modes of action may also include interactions on the outer surface of the plasma membrane or other membrane receptor interactions.
(§3) Biological studies. Murine leukemia cells (L1210), CHO and CHO-MG cells were grown in RPMI medium supplemented with 10% fetal calf serum, glutamine (2 mM), penicillin (100 U/mL), streptomycin (50 μg/mL). L-Proline (2 μg/mL) was added to the culture medium for CHO-MG cells. Cells were grown at 37° C. under a humidified 5% CO2 atmosphere. […] Trypan blue staining was used to determine cell viability before the initiation of a cytotoxicity experiment. Cells in early to mid log-phase were used. IC50 determinations. Cell growth was assayed in sterile 96-well microtiter plates (Becton-Dickinson, Oxnard, Calif., USA). L1210 cells were seeded at 5e^4 cells/mL of medium (100 μL/well). CHO and CHO-MG cells were plated at 2e^3 cells/mL. Drug solutions (10 μL per well) of appropriate concentration were added at the time of seeding for L1210 cells and after an overnight incubation for the CHO cell lines. After exposure to the drug for 48 hr, cell growth was determined by measuring formazan formation from 3-(4,5-dimethylthiazol-2-yl)2,5-diphenyltetrazolium using a Titertek Multiskan MCC/340 microplate reader for absorbance (540 nm) measurements (Mosmann, T., J. Immunol. Methods 1983, 65, 55-63).

CHO cells = assay: Cytotoxicity in CHO cells; type: cell-based, Chinese hamster
Description: as §1, §2
In contrast, the parent CHO cell line represents a cell type with high PAT activity. Comparison of conjugate cytotoxicity in these two CHO lines provided an important screen to detect selective conjugate delivery via the PAT. For example, a conjugate with high utilization of the polyamine transporter would be very toxic to CHO cells, but less so to CHO-MG cells. In short, highly-selective PAT ligands should give high (CHO-MG/CHO) IC50 ratios.
as §3

L1210 cells = assay: Cytotoxicity (cell growth, MTT) in L1210 cells; type: cell-based, mouse
Description: as §1
Biological Evaluation. Once synthesized, the conjugates were screened for cytotoxicity in L1210, CHO and CHO-MG cells. L1210 (mouse leukemia) cells were selected to enable comparisons with the published IC50 and Ki values for a variety of polyamine substrates. Chinese Hamster Ovary (CHO) cells were chosen along with a mutant PAT deficient cell line (CHO-MG) in order to comment on selective transport via the PAT (Wang et al, J. Med. Chem. 2003, 46, 2663-2671; Wang et al, J. Med. Chem. 2003, 46, 2672-2682; Wang et al., J. Med. Chem. 2003, 46, 5129-5138; Delcros et al., J. Med. Chem., 2002, 45, 5098-5111).
(§4) L1210 IC50 and Ki studies. […] The Ki values in Table 3 were determined for [^14C]spermidine uptake and reflect the affinity of the polyamine derivative for the polyamine transporter on the cell surface. With both parameters, one can determine whether high affinity for the transporter (e.g., low Ki value) translated into high cytotoxicity (e.g., low IC50 value), etc.
Biological studies. Murine leukemia cells (L1210), CHO and CHO-MG cells were grown in RPMI medium supplemented with 10% fetal calf serum, glutamine (2 mM), penicillin (100 U/mL), streptomycin (50 μg/mL). L-Proline (2 μg/mL) was added to the culture medium for CHO-MG cells. Cells were grown at 37° C. under a humidified 5% CO2 atmosphere. Aminoguanidine (AG, 2 mM) was added to the culture medium to prevent oxidation of the drugs by the enzyme (bovine serum amine oxidase) present in calf serum. Trypan blue staining was used to determine cell viability before the initiation of a cytotoxicity experiment. Cells in early to mid log-phase were used. IC50 determinations. Cell growth was assayed in sterile 96-well microtiter plates (Becton-Dickinson, Oxnard, Calif., USA). L1210 cells were seeded at 5e^4 cells/mL of medium (100 μL/well). CHO and CHO-MG cells were plated at 2e^3 cells/mL. Drug solutions (10 μL per well) of appropriate concentration were added at the time of seeding for L1210 cells and after an overnight incubation for the CHO cell lines. After exposure to the drug for 48 hr, cell growth was determined by measuring formazan formation from 3-(4,5-dimethylthiazol-2-yl)2,5-diphenyltetrazolium using a Titertek Multiskan MCC/340 microplate reader for absorbance (540 nm) measurements (Mosmann, T., J. Immunol. Methods 1983, 65, 55-63).

[2] = system: polyamine transporter (PAT); assay: Ki for inhibition of [14C]spermidine uptake in L1210 cells; type: cell-based, mouse; conditions: [14C]spermidine uptake, 10-min, 1 μM substrate; read-out: L1210 Ki values
Description: as §1, §4
Ki procedure. The ability of the conjugates to interact with the polyamine transport system was determined by measuring competition by the conjugates against radiolabeled spermidine uptake in L1210 cells. Initially, the Km value of spermidine transport was determined as previously described (Clément et al., Biochem. J. 1995, 312, 933-938). The ability of conjugates to compete for [^14C]spermidine uptake were determined in L1210 cells by a 10-min uptake assay in the presence of increasing concentrations of competitor, using 1 μM [^14C]spermidine as substrate. Ki values for inhibition of spermidine uptake were determined using the Cheng-Prusoff equation (Cheng and Prusoff, Biochem. Pharmacol. 1973, 22, 3099-3108) from the IC50 value derived by iterative curve fitting of the sigmoidal equation describing the velocity of spermidine uptake in the presence of the respective competitor (Torossian et al., Biochem. J., 1996, 319, 21-26). L1210 cells were grown and maintained according to established procedures (Bergeron et al., J. Med. Chem. 2000, 43, 224-235) and were washed twice in HBSS prior to the transport assay.

CCN(CCCNCCCNC(C)=O)Cc1c2ccccc2cc2ccccc12 [Compound 24, N-{3-[3-(Anthracen-9-ylmethyl-ethyl-amino)-propylamino]-propyl}-acetamide]
inhibition at 18 µM [1]: 58%

NCCCNCc1c2ccccc2cc2ccccc12 [Compound 16, N1-Anthracen-9-ylmethyl-propane-1,3-diamine]
inhibition at 18 µM [1]: 92%

CNCCCCNCCCCNCc1c2ccccc2cc2ccccc12 [Compound 28, N-Anthracen-9-ylmethyl-N′-(4-methylamino-butyl)-butane-1,4-diaine]
IC50 (CHO-MG cells; absence of AG, 48 h, read-out: CHO-MG IC50 w/o AG): 56.2 µM | IC50 (CHO-MG cells; in the presence of AG, 48 h at 37° C., read-out: CHO-MG IC50): 60 µM | CHOMG/CHO IC50 ratio in the absence of AG (CHO cells; absence of AG): 11.5 | IC50 Ratio (CHO-MG/CHO) w/o AG (CHO cells; absence of AG): 11.5 | IC50 (CHO cells; absence of AG, 48 h, read-out: CHO IC50 w/o AG): 4.89 µM | IC50 Ratio (CHO-MG/CHO), a measure of PAT selectivity (CHO cells; in the presence of AG): 12.3 | IC50 (CHO cells; in the presence of AG, 48 h at 37° C., read-out: CHO IC50): 4.88 µM | IC50 Ratio (CHO-MG/CHO) with AG (CHO cells; with AG): 12.3 | IC50 (L1210 cells; L1210 experiments, no added SPD, read-out: L1210 IC50): 0.4 µM | IC50 (L1210 cells; in the presence of AG, 48 h at 37° C., read-out: L1210 IC50): 0.4 µM | IC50 (L1210 cells; spermidine rescue, excess SPD (200 μM), read-out: L1210 IC50 in the presence of added SPD): 1.38 µM | Ki [2]: 8.2 µM

CCOCCCNCCCN(CC)Cc1c2ccccc2cc2ccccc12 [Compound 21, N-Anthracen-9-ylmethyl-N′-(3-ethoxy-propyl)-N-ethyl-propane-1,3-diamine]
inhibition at 18 µM [1]: 36%

CCNCCCCNCCCCNCc1c2ccccc2cc2ccccc12 [Compound 27, N-Anthracen-9-ylmethyl-N′-(4-ethylamino-butyl)-butane-1,4-diamine]
IC50 (CHO-MG cells; Cricetulus griseus, CHO-MG, absence of AG, 48 h, read-out: CHO-MG IC50 w/o AG): 51.2 µM | IC50 (CHO-MG cells; Cricetulus griseus, CHO-MG, in the presence of AG, 48 h at 37° C., read-out: CHO-MG IC50): 57.9 µM | IC50 (CHO cells; Cricetulus griseus, CHO, absence of AG, 48 h, read-out: CHO IC50 w/o AG): 13.2 µM | IC50 (CHO cells; Cricetulus griseus, CHO, in the presence of AG, 48 h at 37° C., read-out: CHO IC50): 9.82 µM | CHOMG/CHO IC50 ratio in the absence of AG (CHO cells; absence of AG): 4 | IC50 Ratio (CHO-MG/CHO) w/o AG (CHO cells; absence of AG): 4 | IC50 Ratio (CHO-MG/CHO), a measure of PAT selectivity (CHO cells; in the presence of AG): 5.9 | CHOMG/CHO IC50 ratio (CHO cells; with AG): 5.9 | IC50 Ratio (CHO-MG/CHO) with AG (CHO cells; with AG): 5.9 | IC50 (L1210 cells; Mus musculus, L1210, in the presence of AG, 48 h at 37° C., read-out: L1210 IC50): 1.01 µM | IC50 (L1210 cells; Mus musculus, L1210 experiments, no added SPD, read-out: L1210 IC50): 1.01 µM | Ki [2]: 3.5 µM

NCCCCNCc1c2ccccc2cc2ccccc12 [Compound 13b]
% Inhibition of eversion ([1]; 18 μM): 91%

CCN(CCCN)Cc1c2ccccc2cc2ccccc12 [Compound 12c, N^1-Anthracen-9-ylmethyl-N^1-ethyl-propane-1,3-diamine]
inhibition at 18 µM [1]: 79%

CCN(CCCNCCCO)Cc1c2ccccc2cc2ccccc12 [Compound 20, 3-[3-(Anthracen-9-ylmethyl-ethyl-amino)-propylamino]-propan-1-ol]
inhibition at 18 µM [1]: 38%
